Measured values taken from publication PMC12362587, “Untargeted Diversity-Oriented Synthesis for the Discovery of New Antitumor Agents: An Integrated Approach of Inverse Virtual Screening, Bioinformatics, and Omics for Target Deconvolution” (Journal of Medicinal Chemistry, 2025).
“And” between values parts separate entries of the source, which are not always exact repeats. Equal entries are not always repeated.

Tests used:
Thromboxane Synthase = molecular target: T1, Thromboxane Synthase (Homo sapiens, UniProt P24557); test: Enzymatic LeadHunter Assay; type: biochemical; conditions: Eurofins enzymatic; read-out: EC50 or IC50, Thromboxane Synthase
T1 construct: Eurofins (contract assay)
Source text: (§1) For displacement assays on G-protein coupled receptor 55 (GPR55), Vasopressin V2 receptor (V2R), Adenosine A1 receptor (A1AR), Fibroblast growth factor receptor 1 (FGFR1), Vascular endothelial growth factor receptor 2 (VEGFR2), Platelet-derived growth factor receptor beta (PDGFRB), Vascular endothelial growth factor receptor 1 (VEGFR1), Thromboxane Synthase (TXS) and Phosphodiesterase 10A (PDE10A), we commissioned the Eurofins company which employed its specific experimental methods, accessible at the link: https://www.eurofins.com/.

Phosphodiesterase 10A2 = molecular target: T2, Phosphodiesterase 10A2 (Homo sapiens, UniProt Q9Y233); test: Enzymatic LeadHunter Assay; type: biochemical; conditions: Eurofins enzymatic; read-out: EC50 or IC50, Phosphodiesterase 10A2
T2 construct: Eurofins (contract assay)
Source text: as §1

human CB2R = human CB2R (Homo sapiens, UniProt P34972); test: Competition binding assay, displacement of [3H]-CP-55,940; set-up: host or cells: HEK-293 membranes; conditions: displacement of [3H]-CP-55,940, HEK-293 membranes; read-out: EC50 or IC50, cannabinoid receptor 2
Procedure: Binding assays at equilibrium were conducted as described in Di Micco et al., 2024. […]. All compounds were evaluated following the manufacturer’s protocol (PerkinElmer distributed by Revvity, Italy). […] The K i values were calculated using the Cheng-Prusoff equation, based on the IC50 values obtained through GraphPad PRISM software (version 10.2.2). The results are expressed as K i (μM), represented as mean ± SEM, and reflect the average of three independent experiments performed in duplicate.

[1] = molecular target: T3, PPARγ-Ligand Binding Domain (human recombinant) (Homo sapiens, UniProt P37231); test: PPARγ-LBD Ligand Screening Assay Kit (Cayman); conditions: PPARγ-LBD probe displacement, top concentration 30 μM; read-out: EC50 or IC50, peroxisome proliferator-activated receptor gamma
T3 construct: purchased Cayman
Procedure: The assay was performed in a volume of 50 μL in a 96-well plate. In the PPARγ-Ligand Binding Domain screening assay (Cayman, USA), a ligand of Peroxisome proliferator-activated receptor gamma (PPARγ) is conjugated to fluorescein and is used as a displacement probe. To evaluate the binding ability to the target, PPARγ-Ligand Binding Domain (human recombinant), PPARγ Probe – Green and the compounds were incubated in the dark for 1 h at room temperature. The compounds were added at different concentrations in the reaction buffer, starting from a final concentration of 30 μM. Buffer with the same amount of DMSO (1%) was used as a negative control. The fluorescence signals (excitation/emission, 490 nm/520 nm) were read using a PerkinElmer EnSpire multimode plate reader (PerkinElmer, Waltham, MA, USA). The experiments were performed in triplicate. The IC50 values were calculated using GraphPad Prism 8.0 software by nonlinear regression of dose–response inhibition.

rat TRPA1 = molecular target: T4, rat TRPA1 (Rattus norvegicus, UniProt Q6RI86); test: Ca2+-imaging assay with Fluo-4 AM; type: cell-based; conditions: agonist effect, HEK-293 cells overexpressing rat TRPA1, Fluo-4 AM; read-out: EC50 or IC50, transient receptor potential A1
T4 construct: expressed in transfected cells; host or cells: HEK-293
Procedure: (§2) HEK-293 cells, stably overexpressing recombinant rat TRPM8 or rat TRPA1, were cultured as monolayers in 100 mm Petri dishes using Minimum Essential Media supplemented with 2 mM glutamine, 1% nonessential amino acids, 10% FBS, and maintained at 37 °C under 5% CO2. On the day of the experiment, both nontransfected and transfected HEK-293 cells were loaded for 1 h at room temperature in the dark with the calcium-sensitive fluorescent probe Fluo-4 AM (4 μM, dissolved in dimethyl sulfoxide with 0.02% Pluronic F-127). After loading, cells were washed twice with Tyrode’s solution (145 mM NaCl, 2.5 mM KCl, 1.5 mM CaCl2, 1.2 mM MgCl2, 10 mM D-glucose, 10 mM HEPES, pH 7.4) and transferred to a quartz cuvette (approximately 100,000 cells) in a spectrofluorometer (PerkinElmer LS50B; λEX = 488 nm, λEM = 516 nm) under continuous stirring. Fluorescence was recorded before and after the addition of various concentrations of test compounds. The observed effects were normalized to the response elicited by ionomycin (4 μM). Baseline fluorescence values from nontransfected HEK-293 cells were subtracted from the measurements obtained in transfected cells. The potency of the test compounds was expressed as the concentration required to elicit a half-maximal agonist effect (EC50), measured as half-maximal increases in intracellular calcium concentration ([Ca^2+]-i). The efficacy of TRPA1 agonists was reported as a percentage of the maximal effect induced by allyl isothiocyanate (AITC, 100 μM). Antagonistic or desensitizing effects were assessed by preincubating cells with the test compounds in the quartz cuvette for 5 min before stimulating them with the specific TRP agonist (AITC, 100 μM for TRPA1, or icilin, 0.25 μM for TRPM8). IC50 values were determined as the concentration required to produce a half-maximal inhibition of the agonist effect, with the agonist-induced [Ca^2+]-i response set at 100%. Measurements of [Ca^2+]-i in TRPM8-expressing cells were conducted at 22 °C using a Fluorescence Peltier System (PTP-1, PerkinElmer). All experiments were performed in triplicate or greater. Curve fitting (sigmoidal concentration–response with variable slope) and parameter estimation were conducted using GraphPad Prism 10 (GraphPad Software Inc., San Diego, CA).

rat TRPM8 = molecular target: T5, rat TRPM8 (Rattus norvegicus, UniProt Q8R455); test: Ca2+-imaging assay with Fluo-4 AM; type: cell-based; conditions: inhibition of icilin 0.25 μM, HEK-293 cells overexpressing rat TRPM8, Fluo-4 AM; read-out: EC50 or IC50, transient receptor potential M8
T5 construct: expressed in transfected cells; host or cells: HEK-293
Procedure: as §2

A1 Human Adenosine GPCR = molecular target: T6, A1 Human Adenosine GPCR (Homo sapiens, UniProt P30542); test: Binding Agonist Radioligand LeadHunter Assay; conditions: Eurofins, read-out: EC50 or IC50, A1 Human Adenosine GPCR, agonist radioligand
T6 construct: Eurofins (contract assay)
T6 sequence (P30542 1-326): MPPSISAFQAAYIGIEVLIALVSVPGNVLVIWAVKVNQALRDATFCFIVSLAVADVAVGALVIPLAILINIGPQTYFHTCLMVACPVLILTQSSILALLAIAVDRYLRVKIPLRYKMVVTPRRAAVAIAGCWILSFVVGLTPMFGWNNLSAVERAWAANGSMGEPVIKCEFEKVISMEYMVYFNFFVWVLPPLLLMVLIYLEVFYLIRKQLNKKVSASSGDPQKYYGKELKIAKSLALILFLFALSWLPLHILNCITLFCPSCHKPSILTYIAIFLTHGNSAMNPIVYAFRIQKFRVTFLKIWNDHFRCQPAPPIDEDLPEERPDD
Source text: as §1

Chain of human CB2R (P34972 whole entry): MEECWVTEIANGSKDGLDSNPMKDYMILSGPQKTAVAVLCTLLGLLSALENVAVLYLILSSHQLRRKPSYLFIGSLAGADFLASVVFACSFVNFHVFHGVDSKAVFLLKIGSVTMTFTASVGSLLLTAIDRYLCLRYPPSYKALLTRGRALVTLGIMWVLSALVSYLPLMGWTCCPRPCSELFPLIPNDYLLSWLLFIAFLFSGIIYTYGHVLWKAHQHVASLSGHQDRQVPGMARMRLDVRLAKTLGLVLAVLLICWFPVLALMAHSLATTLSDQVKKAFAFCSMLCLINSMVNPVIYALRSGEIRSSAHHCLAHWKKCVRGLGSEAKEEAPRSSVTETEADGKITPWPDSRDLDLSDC
T1 sequence (P24557 whole entry): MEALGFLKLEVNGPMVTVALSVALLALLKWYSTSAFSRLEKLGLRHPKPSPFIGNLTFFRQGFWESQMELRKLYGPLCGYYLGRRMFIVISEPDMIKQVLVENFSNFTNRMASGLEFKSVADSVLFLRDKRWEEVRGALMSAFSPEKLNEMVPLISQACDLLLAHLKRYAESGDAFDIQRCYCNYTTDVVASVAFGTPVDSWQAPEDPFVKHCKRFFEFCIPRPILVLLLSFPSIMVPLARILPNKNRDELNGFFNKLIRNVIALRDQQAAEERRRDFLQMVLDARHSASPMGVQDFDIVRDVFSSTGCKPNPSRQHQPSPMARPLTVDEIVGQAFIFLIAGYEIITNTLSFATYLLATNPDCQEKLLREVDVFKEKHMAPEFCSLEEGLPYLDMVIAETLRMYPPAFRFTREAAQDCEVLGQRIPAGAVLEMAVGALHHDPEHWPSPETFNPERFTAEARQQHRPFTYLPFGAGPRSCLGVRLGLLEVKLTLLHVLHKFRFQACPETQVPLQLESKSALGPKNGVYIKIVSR
T5 sequence (Q8R455 whole entry): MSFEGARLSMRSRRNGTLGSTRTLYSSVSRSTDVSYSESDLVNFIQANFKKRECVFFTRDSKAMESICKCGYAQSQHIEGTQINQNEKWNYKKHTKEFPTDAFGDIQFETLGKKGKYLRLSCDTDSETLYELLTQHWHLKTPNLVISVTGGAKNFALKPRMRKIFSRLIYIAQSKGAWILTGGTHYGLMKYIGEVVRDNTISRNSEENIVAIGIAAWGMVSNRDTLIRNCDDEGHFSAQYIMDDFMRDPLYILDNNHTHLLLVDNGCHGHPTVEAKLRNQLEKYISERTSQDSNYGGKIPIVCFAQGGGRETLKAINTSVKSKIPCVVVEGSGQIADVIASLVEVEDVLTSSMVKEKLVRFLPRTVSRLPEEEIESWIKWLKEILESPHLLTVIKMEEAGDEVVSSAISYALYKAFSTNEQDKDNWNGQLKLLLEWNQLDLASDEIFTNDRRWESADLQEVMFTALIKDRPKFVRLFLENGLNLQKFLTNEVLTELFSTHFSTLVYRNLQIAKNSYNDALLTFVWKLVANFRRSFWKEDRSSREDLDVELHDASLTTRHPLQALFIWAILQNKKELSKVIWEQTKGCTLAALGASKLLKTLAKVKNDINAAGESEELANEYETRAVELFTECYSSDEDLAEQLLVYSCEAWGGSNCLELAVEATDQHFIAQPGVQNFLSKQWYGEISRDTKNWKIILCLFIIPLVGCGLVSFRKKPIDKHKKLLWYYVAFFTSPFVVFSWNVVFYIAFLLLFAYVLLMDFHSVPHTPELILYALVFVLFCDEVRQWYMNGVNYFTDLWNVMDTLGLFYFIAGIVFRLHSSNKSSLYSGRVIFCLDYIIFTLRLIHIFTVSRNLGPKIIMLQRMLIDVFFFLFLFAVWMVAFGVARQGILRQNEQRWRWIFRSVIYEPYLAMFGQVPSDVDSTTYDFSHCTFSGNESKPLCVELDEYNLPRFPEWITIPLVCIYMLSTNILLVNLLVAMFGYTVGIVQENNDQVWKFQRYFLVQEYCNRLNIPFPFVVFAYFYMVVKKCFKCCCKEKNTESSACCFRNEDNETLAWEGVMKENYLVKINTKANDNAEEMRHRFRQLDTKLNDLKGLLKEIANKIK
T3 sequence (P37231 238-503 limits assumed): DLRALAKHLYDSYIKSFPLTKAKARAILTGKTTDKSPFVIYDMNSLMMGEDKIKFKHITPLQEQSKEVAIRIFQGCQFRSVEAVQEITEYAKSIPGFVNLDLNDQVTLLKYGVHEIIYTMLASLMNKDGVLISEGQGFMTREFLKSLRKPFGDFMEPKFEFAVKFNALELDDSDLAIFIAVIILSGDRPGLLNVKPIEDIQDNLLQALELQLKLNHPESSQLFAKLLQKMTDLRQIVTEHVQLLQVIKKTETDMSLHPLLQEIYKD
T4 sequence (Q6RI86 whole entry): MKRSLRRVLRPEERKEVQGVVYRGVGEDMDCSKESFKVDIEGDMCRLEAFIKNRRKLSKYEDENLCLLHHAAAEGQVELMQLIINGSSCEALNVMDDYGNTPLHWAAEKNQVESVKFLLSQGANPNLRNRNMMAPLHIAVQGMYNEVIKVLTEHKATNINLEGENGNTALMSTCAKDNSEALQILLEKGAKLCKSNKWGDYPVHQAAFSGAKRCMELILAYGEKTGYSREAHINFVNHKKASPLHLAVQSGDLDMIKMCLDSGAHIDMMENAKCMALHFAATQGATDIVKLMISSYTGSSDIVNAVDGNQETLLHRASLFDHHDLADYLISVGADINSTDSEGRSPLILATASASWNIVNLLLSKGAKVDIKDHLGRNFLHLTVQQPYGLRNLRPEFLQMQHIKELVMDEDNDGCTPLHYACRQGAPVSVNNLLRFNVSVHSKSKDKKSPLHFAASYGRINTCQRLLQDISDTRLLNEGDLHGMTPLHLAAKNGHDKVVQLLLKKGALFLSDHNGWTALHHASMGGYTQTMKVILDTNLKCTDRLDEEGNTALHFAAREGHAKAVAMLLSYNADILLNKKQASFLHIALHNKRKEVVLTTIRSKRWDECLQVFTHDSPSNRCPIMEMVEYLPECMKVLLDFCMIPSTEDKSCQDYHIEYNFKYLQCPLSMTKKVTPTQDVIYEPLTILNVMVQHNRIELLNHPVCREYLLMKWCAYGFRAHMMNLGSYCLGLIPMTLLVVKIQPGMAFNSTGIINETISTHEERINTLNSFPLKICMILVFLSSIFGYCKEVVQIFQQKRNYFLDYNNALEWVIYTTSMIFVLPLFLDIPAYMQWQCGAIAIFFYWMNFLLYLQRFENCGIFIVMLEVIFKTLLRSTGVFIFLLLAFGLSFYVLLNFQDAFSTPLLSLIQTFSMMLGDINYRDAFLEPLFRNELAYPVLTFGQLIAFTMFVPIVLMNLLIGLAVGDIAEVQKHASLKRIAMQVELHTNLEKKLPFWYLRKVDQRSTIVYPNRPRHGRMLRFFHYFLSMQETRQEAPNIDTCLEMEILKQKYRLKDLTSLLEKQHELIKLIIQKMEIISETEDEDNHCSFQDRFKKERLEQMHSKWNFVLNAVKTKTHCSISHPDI
T2 sequence (Q9Y233 267-1055): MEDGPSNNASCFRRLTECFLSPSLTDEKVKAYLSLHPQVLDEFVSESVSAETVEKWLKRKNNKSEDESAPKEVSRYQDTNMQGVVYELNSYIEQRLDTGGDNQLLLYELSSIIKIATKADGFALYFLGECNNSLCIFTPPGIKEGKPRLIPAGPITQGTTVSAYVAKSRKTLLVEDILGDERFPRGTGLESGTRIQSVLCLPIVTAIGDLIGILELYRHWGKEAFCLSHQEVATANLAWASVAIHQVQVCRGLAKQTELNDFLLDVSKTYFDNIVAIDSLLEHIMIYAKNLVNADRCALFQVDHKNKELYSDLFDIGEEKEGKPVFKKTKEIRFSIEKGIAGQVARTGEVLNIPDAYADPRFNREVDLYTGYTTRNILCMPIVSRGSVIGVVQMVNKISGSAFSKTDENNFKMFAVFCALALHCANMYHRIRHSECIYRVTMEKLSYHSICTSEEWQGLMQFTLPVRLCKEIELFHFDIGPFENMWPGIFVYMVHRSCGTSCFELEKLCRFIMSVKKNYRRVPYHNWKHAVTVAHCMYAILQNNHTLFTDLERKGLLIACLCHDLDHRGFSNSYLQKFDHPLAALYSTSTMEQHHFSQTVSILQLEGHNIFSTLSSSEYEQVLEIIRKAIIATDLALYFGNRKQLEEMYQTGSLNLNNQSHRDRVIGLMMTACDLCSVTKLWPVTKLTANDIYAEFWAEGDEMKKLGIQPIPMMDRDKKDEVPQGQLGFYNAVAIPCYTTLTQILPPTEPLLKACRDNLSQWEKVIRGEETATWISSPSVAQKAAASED

| IC50 (Thromboxane Synthase) [µM] | IC50 (Phosphodiesterase 10A2) [µM] | IC50 (human CB2R) | IC50 [1] [µM] | EC50 (rat TRPA1) [µM] | IC50 (rat TRPM8) [µM] | IC50 (A1 Human Adenosine GPCR) [µM] | Structure (SMILES) |
| --- | --- | --- | --- | --- | --- | --- | --- |
| ≥ 30 | ≥ 30 | 9.7 ± 0.67 µM | > 30 | 0.2 ± 0.09 | > 30 | ≥ 30 | CC(C)C[C@H]1C(=O)N(Cc2ccc(C(F)(F)F)cc2)c2ccccc2C(=O)N1Cc1ccc(C(F)(F)F)cc1 [Compound 31, (S)-3-Isobutyl-1,4-bis(4-(trifluoromethyl)benzyl)-3,4-dihydro-1H-benzo[e][1,4]diazepine-2,5-dione] |
| ≥ 30 | ≥ 30 | 6.9 µM and 6.91 µM | > 30 | 2.54 ± 1.2 | 0.36 ± 0.08 | ≥ 30 | CC(C)C[C@@H](C(=O)OCc1ccccc1)N1Cc2ccccc2NC1=O [Compound 63, Benzyl (S)-4-Methyl-2-(2-oxo-1,4-dihydroquinazolin-3(2H)-yl)pentanoate] |
